Where two headings read alike, the source gives them in different places.
How the values were obtained:
ShHTL7 [1] = molecular target: T1, ShHTL7 (Striga hermonthica, UniProt A0A0M3PNA2); conditions: A. thaliana line expressing ShHTL7; cited from earlier work
ShHTL7 [2] = molecular target: T1, ShHTL7; conditions: read-out: Kd of ShHTL7 and GR24
ShHTL7 [3] = molecular target: T1, ShHTL7; experiment: Differential static light scattering (DSLS), aggregation temperature; format: binding; conditions: following pre-incubation; varying Triton concentrations
Protocol: The specific aggregation temperature, Tagg, was determined using DSLS on the Stargazer system (Harbinger Biotechnology and Engineering Corporation, Markham, Canada). For this purpose, purified protein (1 mg/mL) was overlaid with mineral oil in a clear bottom 384-well black plate (Corning), and temperature was increased from 20 to 95° C. with a ratio of 1° C./min. A CCD camera was used to detect light scattering every 0.5° C. in the presence or absence of varying concentrations of Triton X-100, unraveling X-100 concentration-dependent changes in aggregation temperature (ShHTL7 ΔTagg). Data were normalized, and ΔTagg was plotted against the Triton X-100 concentration. Resulting data were plotted to determine the change in Tagg of ShHTL7 upon binding to Triton X-100 using Graph pad (PRISM 6).

ShHTL7 L143Y mutant = experiment: Yoshimulactone Green (YLG) hydrolysis analysis; format: biochemical, Striga hermonthica
OsD14 [4] = molecular target: T2, OsD14 (Oryza sativa subsp. japonica, UniProt Q10QA5); experiment: Yoshimulactone Green (YLG) hydrolysis analysis; format: biochemical, rice
T2 construct: made in house
T2 sequence (Q10QA5 1-318): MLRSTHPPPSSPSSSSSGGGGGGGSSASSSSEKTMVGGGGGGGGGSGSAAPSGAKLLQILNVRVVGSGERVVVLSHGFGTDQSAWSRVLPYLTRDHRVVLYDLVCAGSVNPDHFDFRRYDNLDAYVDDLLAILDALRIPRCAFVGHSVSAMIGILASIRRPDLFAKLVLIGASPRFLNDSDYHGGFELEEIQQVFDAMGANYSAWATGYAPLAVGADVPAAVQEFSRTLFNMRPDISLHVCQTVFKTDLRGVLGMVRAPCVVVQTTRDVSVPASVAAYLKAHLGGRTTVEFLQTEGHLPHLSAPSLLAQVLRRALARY
Protocol: (§1) For measuring the hydrolysis of YLG in vitro, 10 μg of purified ShHTL7, AtD14 and OsD14 in a reaction buffer (1×PBS) containing 0.1% dimethyl sulfoxide (DMSO) in a total volume of 100 μL in 96-well black plate (Greiner) were used. To measure the fluorescent intensity, SpectraMax i3 (Molecular Devices) with an excitation wavelength of 480 nm and a detection wavelength of 520 nm were used. […] Proteins were pre-incubated with Tritone X-100 for 30 min, followed by incubation with 1 μM YLG (Tokyo Chemical Industry Co. Ltd., product number E1238) for 60 min. Fluorescence values measured in the void control were subtracted from those obtained in the presence of protein. Curves and IC50 values were plotted using Graph pad (PRISM 6) four-parameter logistic curve.

AtD14 [5] = molecular target: T3, AtD14 (Arabidopsis thaliana, UniProt Q9SQR3); experiment: Yoshimulactone Green (YLG) hydrolysis analysis; format: biochemical, A. thaliana
T3 construct: made in house
T3 sequence (Q9SQR3 1-267): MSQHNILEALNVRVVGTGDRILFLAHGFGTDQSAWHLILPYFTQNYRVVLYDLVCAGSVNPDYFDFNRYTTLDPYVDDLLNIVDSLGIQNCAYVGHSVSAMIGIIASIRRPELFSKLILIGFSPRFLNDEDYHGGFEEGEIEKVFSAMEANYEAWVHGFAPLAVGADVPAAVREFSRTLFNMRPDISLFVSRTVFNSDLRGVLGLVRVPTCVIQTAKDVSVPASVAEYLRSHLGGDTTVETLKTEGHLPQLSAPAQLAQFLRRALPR
Protocol: as §1

OsD14 [6] = molecular target: T2, OsD14; experiment: Intrinsic Triton X-100 fluorescence binding assay; parameters: species or system rice; conditions: OsD14 concentrations up to 10 μM
Protocol: (§2) Since Triton X-100 has an excitation and emission wavelength of 275 nm and 302 nm, fluorescence was measured at the corresponding wavelengths using SpectraMax i3 (Molecular Devices). […] Data were normalized to the background fluorescence from the protein and values obtained in absence of proteins were subtracted, to determine changes in Triton X-100 fluorescence intensity. Kd values were determined by plotting changes in Triton X-100 fluorescence intensity against the concentration of the protein, using the single binding site model implemented in Graph pad (PRISM 6).

Striga hermonthica seeds = experiment: Striga hermonthica germination assay (GR24-induced); format: in vivo
Protocol: Striga hermonthica germination bioassays were carried out using Striga seeds collected from a Sorghum bicolor field in Sudan. About 50-100 dry Striga washed and sterilized seeds were distributed on a 9-mm diameter glass fiber filter paper discs (Sartorius, Goettingen Germany). Discs were then placed in 9-cm diameter petri-dishes (12 discs per petri-dish) on filter paper (Whatman, Maidstone, UK) moistened with 3 mL sterilized water. The petri-dishes were sealed with parafilm, wrapped with aluminum foil and incubated in growth chambers at 30° C. for 10 days for preconditioning. On the 11th day, discs were air dried in laminar flow cabinet and transferred to 9-cm petri-dishes (four discs in each plate), which contained 9-mm diameter glass fiber filter paper rings, moistened with 900 μL sterile MilliQ water. The pre-conditioned Striga seeds were treated with Triton X-100 at concentrations of 15.4 μM (0.001%) and 1.54 μM (0.0001%) along with GR24 at 1 nM, 0.5 nM, 0.25 nM and 0.125 nM respectively. Triton X-100/GR24 mixtures were applied (50 μl per disc) in four replicates. Corresponding volumes of GR24 and sterile MilliQ water were included as positive and negative control, respectively. The petri-dishes were sealed with parafilm, enfolded with aluminum foil and incubated for 48 h at 30° C. The germinated (seeds with radicle emerging through the seed coat) and non-germinated Striga seeds were recorded under a binocular and germination percentage was calculated.

ShHTL7 [7] = molecular target: T1, ShHTL7; experiment: Intrinsic Triton X-100 fluorescence binding assay
Protocol: cDNA fragments, encoding the S. hermonthica ShHTL7 or the mutated version S95C (in which the serine in the active triad was changed to cysteine) flanked with BamHI and XhoI restriction sites, were cloned into the pGEX-6P1 (GE Healthcare) expression vector that enables the expression of GST fusion protein, using the corresponding restriction sites, as shown in Table 1 below. The plasmid obtained was then transformed into BL21 (DE3) E. coli cells. Cells were grown in LB medium at 37° C., and protein expression was induced at OD 0.6 at λ=600 nm by adding 150 μM isopropyl β-D-1-thiogalactopyranoside (IPTG). After induction, cultures were grown at 16° C. overnight under shaking. […]
as §2, with “Purified proteins (at concentrations of […] to 5 μM) were incubated with 1.54 μM of Triton X-100 for 2 h. Since” for “Since”

AtD14 [8] = molecular target: T3, AtD14; experiment: Intrinsic Triton X-100 fluorescence binding assay; parameters: species or system A. thaliana; conditions: AtD14 concentrations up to 10 μM
Protocol: as §2

ShHTL7 [9] = molecular target: T1, ShHTL7; experiment: Yoshimulactone Green (YLG) hydrolysis analysis; format: biochemical; conditions: for IC50: pre-incubation 30 min, 1 μM YLG 60 min
Protocol: For measuring the hydrolysis of YLG in vitro, 10 μg of purified ShHTL7, AtD14 and OsD14 in a reaction buffer (1×PBS) containing 0.1% dimethyl sulfoxide (DMSO) in a total volume of 100 μL in 96-well black plate (Greiner) were used. To measure the fluorescent intensity, SpectraMax i3 (Molecular Devices) with an excitation wavelength of 480 nm and a detection wavelength of 520 nm were used. Purified proteins were mixed with Triton X-100, using serial dilutions with concentrations ranging from 5 μM to 4.87 nM. Proteins were pre-incubated with Tritone X-100 for 30 min, followed by incubation with 1 μM YLG (Tokyo Chemical Industry Co. Ltd., product number E1238) for 60 min. Fluorescence values measured in the void control were subtracted from those obtained in the presence of protein. Curves and IC50 values were plotted using Graph pad (PRISM 6) four-parameter logistic curve.

[10] = system: rice seeds cv. Nipponbare; format: in vivo; conditions: Striga germination vs rice growth
Protocol: The rice seeds cv. Nipponbare were surface-sterilized using 50 ml (2.5%) sodium hypochlorite with 0.4% of Tween-20 for 15 min. After six subsequent washing steps with sterilized water, the rice seeds were kept in water at 30° C. for overnight imbibition. About 2 ml of dilutions of Triton X-100 at 15.4 μM, 1.54 μM in sterile MilliQ water (control) was added in 24-well plates with six replications. One sterilized rice seed was put in each well and allowed to germinate for 48 h at 30° C. The germinated (radicle emergence) and non-germinated seeds were recorded and germination percentage was calculated. Then same seeds were allowed to grow under light in growth cabinet for another one week. The length of one week old seedlings was measured with a roller and averaged.

T1 sequence (A0A0M3PNA2 entry or part of it): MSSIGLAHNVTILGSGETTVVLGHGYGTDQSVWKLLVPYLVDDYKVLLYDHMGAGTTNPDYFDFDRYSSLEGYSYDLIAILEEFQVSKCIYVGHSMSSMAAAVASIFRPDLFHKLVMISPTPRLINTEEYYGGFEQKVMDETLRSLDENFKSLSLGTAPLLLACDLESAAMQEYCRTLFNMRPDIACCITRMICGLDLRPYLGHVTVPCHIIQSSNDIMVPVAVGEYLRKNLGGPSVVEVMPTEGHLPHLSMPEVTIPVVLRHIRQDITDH

## CC1=C[C@H](O/C=C2/C(=O)O[C@@H]3c4ccccc4C[C@H]23)OC1=O [GR24]
ShHTL7 [1]
  GR24 concentration triggering germination: picomolar concentrations
ShHTL7 [2]
  Kd: 0.44 µM

## polyethylene glycol tert-octylphenyl ether [Triton X-100]
ShHTL7 [3]
  Aggregation temperature (Tagg) of ShHTL7: aggregation temperature increases in a Triton concentration-dependent manner
ShHTL7 L143Y mutant
  Inhibition of YLG hydrolysis by ShHTL7 L143Y mutant: failed to inhibit
OsD14 [4]; 10 μM Triton
  Inhibition of YLG hydrolysis by OsD14: around 10%
OsD14 [4]; up to 0.5 μM Triton
  Effect on YLG hydrolysis by OsD14: did not affect
AtD14 [5]; 10 μM Triton
  Inhibition of YLG hydrolysis by AtD14: around 10%
AtD14 [5]; up to 0.5 μM Triton
  Effect on YLG hydrolysis by AtD14: did not affect
OsD14 [6]
  Change in Triton fluorescence with OsD14: No change in Triton fluorescence
Striga hermonthica seeds; 1.54 μM Triton X-100
  Inhibition of GR24-induced S. hermonthica germination: significantly inhibiting
Striga hermonthica seeds; 15.4 μM Triton X-100
  Inhibition of GR24-induced S. hermonthica germination: significantly inhibiting
Striga hermonthica seeds; maximum inhibition
  Inhibition of S. hermonthica germination: up to 90%
ShHTL7 [7]; Kd 31 nM vs Kd 440 nM
  Affinity of Triton for ShHTL7 relative to GR24: about ten times higher affinity
ShHTL7 [7]; following pre-incubation 2 h or more, intrinsic Triton fluorescence, read-out: Kd between Triton and ShHTL7
  Kd: 0.031 µM
AtD14 [8]
  Change in Triton fluorescence with AtD14: No change in Triton fluorescence
ShHTL7 [9]
  IC50: 0.47 ± 0.11 µM
[10]
  Triton concentrations inhibiting S. hermonthica germination relative to concentrations that affect rice growth: five orders of magnitude lower

## CC(C)(C)CC(C)(C)c1ccc(OCC(=O)O)cc1 [2-[4-(2,4,4-trimethylpentan-2-yl)phenoxy]acetic acid]
ShHTL7 [9]; in words
  Inhibitory effect on ShHTL7 catalyzed hydrolysis of YLG: clear inhibitory effect
ShHTL7 [9]
  IC50: 1.5 ± 0.41 µM

## CC(C)(C)CC(C)(C)c1ccc(OCCO)cc1 [4-ter-octylphenol Monoethoxylate]
ShHTL7 [9]
  IC50: 9.2 ± 3.2 µM

## CC(C)(C)CC(C)(C)c1ccc(OCCOCCO)cc1 [4-ter-octylphenol diethoxylate]
ShHTL7 [9]
  IC50: 7.5 ± 2.1 µM
